These results are taken from patent US10780090B2, “Heteroaryl compounds useful as inhibitors of SUMO activating enzyme” (Millennium Pharmaceuticals, Inc., priority 2014, dated 2020).

This assay concerns the target recombinant human SAE enzyme (Homo sapiens (Human), UniProt Q9UBT2). Description: SAE HTRF enzyme assay. Format: biochemical. The following applies: for Percent Inhibition: SAE inhibition at compound concentration 0.111 μM; for IC50: SAE inhibition, class symbols, legend in nM. An outline of the steps: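 Sumoylation of Ubc9-GST by SAE was followed at low ATP (0.5 μM), pH 7.5, 24° C. for 105 min. Product was detected by HTRF with antibody pairs against Flag and GST tags.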
A general note: Time-resolved FRET reads energy transfer from a long-lived donor to a nearby acceptor.

Sequence of recombinant human SAE enzyme (Q9UBT2 whole entry): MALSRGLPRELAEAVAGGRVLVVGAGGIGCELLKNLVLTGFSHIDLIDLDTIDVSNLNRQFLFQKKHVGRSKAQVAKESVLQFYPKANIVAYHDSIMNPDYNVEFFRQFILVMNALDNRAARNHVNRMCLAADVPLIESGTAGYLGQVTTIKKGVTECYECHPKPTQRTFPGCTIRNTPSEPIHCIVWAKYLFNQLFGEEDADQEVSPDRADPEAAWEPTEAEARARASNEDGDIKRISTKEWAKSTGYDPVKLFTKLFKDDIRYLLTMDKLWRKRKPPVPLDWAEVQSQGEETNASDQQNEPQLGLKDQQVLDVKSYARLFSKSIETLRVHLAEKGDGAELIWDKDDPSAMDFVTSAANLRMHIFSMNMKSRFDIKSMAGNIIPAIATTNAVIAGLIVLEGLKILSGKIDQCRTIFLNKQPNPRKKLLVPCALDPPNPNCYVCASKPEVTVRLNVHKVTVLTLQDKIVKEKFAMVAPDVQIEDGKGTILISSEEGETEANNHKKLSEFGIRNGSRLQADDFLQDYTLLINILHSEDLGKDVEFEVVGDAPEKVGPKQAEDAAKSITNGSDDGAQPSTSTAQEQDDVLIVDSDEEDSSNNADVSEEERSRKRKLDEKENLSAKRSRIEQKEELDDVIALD
Sequence of recombinant human SAE enzyme (Q9UBE0 whole entry partner): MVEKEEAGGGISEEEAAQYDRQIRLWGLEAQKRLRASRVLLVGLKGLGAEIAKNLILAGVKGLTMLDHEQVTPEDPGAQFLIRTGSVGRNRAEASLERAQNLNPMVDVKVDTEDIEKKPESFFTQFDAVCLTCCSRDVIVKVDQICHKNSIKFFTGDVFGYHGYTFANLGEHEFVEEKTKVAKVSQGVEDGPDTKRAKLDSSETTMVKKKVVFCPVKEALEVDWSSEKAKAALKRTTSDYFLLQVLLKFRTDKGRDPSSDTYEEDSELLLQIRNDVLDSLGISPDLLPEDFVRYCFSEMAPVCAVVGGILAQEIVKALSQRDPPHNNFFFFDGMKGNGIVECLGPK

The term IC50 denotes the midpoint of a concentration-inhibition curve. In the case of `Cc1sc(C(=O)c2cncnc2N[C@@H]2C[C@H](COS(N)(=O)=O)[C@@H](O)C2)cc1[C@@H]1OCCc2ccc(Cl)nc21` (single isomer, unassigned) [I-286a, [(1R,2S,4R)-4-{[5-({4-[(8S)-2-chloro-5,8-dihydro-6H-pyrano[3,4-b]pyridin-8-yl]-5-methyl-2-thienyl}carbonyl)pyrimidin-4-yl]amino}-2-hydroxycyclopentyl]methyl sulfamate or [(1R,2S,4R)-4-{[5-({4-[(8R)-2-chloro-5,8-dihydro-6H-pyrano[3,4-b]pyridin-8-yl]-5-methyl-2-thienyl}carbonyl)pyrimidin-4-yl]amino}-2-hydroxycyclopentyl]methyl sulfamate], the “Percent Inhibition” value came to 39% and the IC50 lay within 100 to 1000 nM.
For `Cc1sc(C(=O)c2cncnc2N[C@@H]2C[C@H](COS(N)(=O)=O)[C@@H](O)C2)cc1[C@@H]1OCCc2ccc(Cl)nc21` (single isomer, unassigned) [I-286b, [(1R,2S,4R)-4-{[5-({4-[(8S)-2-chloro-5,8-dihydro-6H-pyrano[3,4-b]pyridin-8-yl]-5-methyl-2-thienyl}carbonyl)pyrimidin-4-yl]amino}-2-hydroxycyclopentyl]methyl sulfamate or [(1R,2S,4R)-4-{[5-({4-[(8R)-2-chloro-5,8-dihydro-6H-pyrano[3,4-b]pyridin-8-yl]-5-methyl-2-thienyl}carbonyl)pyrimidin-4-yl]amino}-2-hydroxycyclopentyl]methyl sulfamate], the “Percent Inhibition” value is 99% and the IC50 is under 10 nM.
On to `Cc1nc2c(s1)CCO[C@H]2c1cc(C(=O)c2cncnc2N[C@@H]2C[C@H](COS(N)(=O)=O)[C@@H](O)C2)sc1C` (single isomer, unassigned) [I-287a, [(1R,2S,4R)-2-hydroxy-4-{[5-({5-methyl-4-[(4S)-2-methyl-6,7-dihydro-4H-pyrano[3,4-d][1,3]thiazol-4-yl]-2-thienyl}carbonyl)pyrimidin-4-yl]amino}cyclopentyl]methyl sulfamate or [(1R,2S,4R)-2-hydroxy-4-{[5-({5-methyl-4-[(4R)-2-methyl-6,7-dihydro-4H-pyrano[3,4-d][1,3]thiazol-4-yl]-2-thienyl}carbonyl)pyrimidin-4-yl]amino}cyclopentyl]methyl sulfamate], for which the “Percent Inhibition” value stood at 9% and the IC50 was in the range of 100 to 1000 nM.
For the compound `Cc1nc2c(s1)CCO[C@H]2c1cc(C(=O)c2cncnc2N[C@@H]2C[C@H](COS(N)(=O)=O)[C@@H](O)C2)sc1C` (single isomer, unassigned) [I-287b, [(1R,2S,4R)-2-hydroxy-4-{[5-({5-methyl-4-[(4S)-2-methyl-6,7-dihydro-4H-pyrano[3,4-d][1,3]thiazol-4-yl]-2-thienyl}carbonyl)pyrimidin-4-yl]amino}cyclopentyl]methyl sulfamate or [(1R,2S,4R)-2-hydroxy-4-{[5-({5-methyl-4-[(4R)-2-methyl-6,7-dihydro-4H-pyrano[3,4-d][1,3]thiazol-4-yl]-2-thienyl}carbonyl)pyrimidin-4-yl]amino}cyclopentyl]methyl sulfamate], the “Percent Inhibition” value came to 98% and the IC50 is under 10 nM.
Regarding `NS(=O)(=O)OC[C@H]1C[C@@H](Nc2ncncc2C(=O)c2cc([C@@H]3OCC(F)(F)c4ccc(Cl)cc43)cs2)C[C@@H]1O` (single isomer, unassigned) [I-289a, [(1R,2S,4R)-4-{[5-({4-[(1R)-7-chloro-4,4-difluoro-3,4-dihydro-1H-isochromen-1-yl]-2-thienyl}carbonyl)pyrimidin-4-yl]amino}-2-hydroxycyclopentyl]methyl sulfamate or [(1R,2S,4R)-4-{[5-({4-[(1S)-7-chloro-4,4-difluoro-3,4-dihydro-1H-isochromen-1-yl]-2-thienyl}carbonyl)pyrimidin-4-yl]amino}-2-hydroxycyclopentyl]methyl sulfamate], the “Percent Inhibition” value worked out at 16% and the 50% inhibitory concentration (IC50) is 100 to 1000 nM.
`NS(=O)(=O)OC[C@H]1C[C@@H](Nc2ncncc2C(=O)c2cc([C@@H]3OCC(F)(F)c4ccc(Cl)cc43)cs2)C[C@@H]1O` (single isomer, unassigned) [I-289b, [(1R,2S,4R)-4-{[5-({4-[(1R)-7-chloro-4,4-difluoro-3,4-dihydro-1H-isochromen-1-yl]-2-thienyl}carbonyl)pyrimidin-4-yl]amino}-2-hydroxycyclopentyl]methyl sulfamate or [(1R,2S,4R)-4-{[5-({4-[(1S)-7-chloro-4,4-difluoro-3,4-dihydro-1H-isochromen-1-yl]-2-thienyl}carbonyl)pyrimidin-4-yl]amino}-2-hydroxycyclopentyl]methyl sulfamate]: the “Percent Inhibition” value is listed as 99% and the IC50 is under 10 nM.
For `NS(=O)(=O)OC[C@H]1C[C@@H](Nc2ncncc2C(=O)c2cc([C@@H]3OCCc4cc(F)c(F)cc43)c(Cl)s2)C[C@@H]1O` (single isomer, unassigned) [I-290a, [(1R,2S,4R)-4-{[5-({5-chloro-4-[(1R)-6,7-difluoro-3,4-dihydro-1H-isochromen-1-yl]-2-thienyl}carbonyl)pyrimidin-4-yl]amino}-2-hydroxycyclopentyl]methyl sulfamate or [(1R,2S,4R)-4-{[5-({5-chloro-4-[(1S)-6,7-difluoro-3,4-dihydro-1H-isochromen-1-yl]-2-thienyl}carbonyl)pyrimidin-4-yl]amino}-2-hydroxycyclopentyl]methyl sulfamate] the same measures were 62% and 10 to 100 nM.
In the case of `NS(=O)(=O)OC[C@H]1C[C@@H](Nc2ncncc2C(=O)c2cc([C@@H]3OCCc4cc(F)c(F)cc43)c(Cl)s2)C[C@@H]1O` (single isomer, unassigned) [I-290b, [(1R,2S,4R)-4-{[5-({5-chloro-4-[(1R)-6,7-difluoro-3,4-dihydro-1H-isochromen-1-yl]-2-thienyl}carbonyl)pyrimidin-4-yl]amino}-2-hydroxycyclopentyl]methyl sulfamate or [(1R,2S,4R)-4-{[5-({5-chloro-4-[(1S)-6,7-difluoro-3,4-dihydro-1H-isochromen-1-yl]-2-thienyl}carbonyl)pyrimidin-4-yl]amino}-2-hydroxycyclopentyl]methyl sulfamate], the “Percent Inhibition” value was determined as 97% and the IC50 is under 10 nM.
For `Cc1ccc2c(n1)C(c1cc(C(=O)c3cncnc3N[C@@H]3C[C@H](COS(N)(=O)=O)[C@@H](O)C3)sc1C)OCC2` (single isomer, unassigned) [I-291a, [(1R,2S,4R)-2-hydroxy-4-{[5-({5-methyl-4-[(8S)-2-methyl-5,8-dihydro-6H-pyrano[3,4-b]pyridin-8-yl]-2-thienyl}carbonyl)pyrimidin-4-yl]amino}cyclopentyl]methyl sulfamate or [(1R,2S,4R)-2-hydroxy-4-{[5-({5-methyl-4-[(8R)-2-methyl-5,8-dihydro-6H-pyrano[3,4-b]pyridin-8-yl]-2-thienyl}carbonyl)pyrimidin-4-yl]amino}cyclopentyl]methyl sulfamate] the same measures were 17% and 100 to 1000 nM.
For `Cc1ccc2c(n1)C(c1cc(C(=O)c3cncnc3N[C@@H]3C[C@H](COS(N)(=O)=O)[C@@H](O)C3)sc1C)OCC2` (single isomer, unassigned) [I-291b, [(1R,2S,4R)-2-hydroxy-4-{[5-({5-methyl-4-[(8S)-2-methyl-5,8-dihydro-6H-pyrano[3,4-b]pyridin-8-yl]-2-thienyl}carbonyl)pyrimidin-4-yl]amino}cyclopentyl]methyl sulfamate or [(1R,2S,4R)-2-hydroxy-4-{[5-({5-methyl-4-[(8R)-2-methyl-5,8-dihydro-6H-pyrano[3,4-b]pyridin-8-yl]-2-thienyl}carbonyl)pyrimidin-4-yl]amino}cyclopentyl]methyl sulfamate] the same measures were 99% and under 10 nM.
With `Cc1sc(C(=O)c2cncnc2N[C@@H]2C[C@H](COS(N)(=O)=O)[C@@H](O)C2)cc1[C@H]1NCCc2ccccc21` (single isomer, unassigned) [I-292a, [(1R,2S,4R)-2-hydroxy-4-{[5-({5-methyl-4-[(1S)-1,2,3,4-tetrahydroisoquinolin-1-yl]-2-thienyl}carbonyl)pyrimidin-4-yl]amino}cyclopentyl]methyl sulfamate or [(1R,2S,4R)-2-hydroxy-4-{[5-({5-methyl-4-[(1R)-1,2,3,4-tetrahydroisoquinolin-1-yl]-2-thienyl}carbonyl)pyrimidin-4-yl]amino}cyclopentyl]methyl sulfamate], the “Percent Inhibition” value came to 99% and the IC50 was under 10 nM.
For `Cc1sc(C(=O)c2cncnc2N[C@@H]2C[C@H](COS(N)(=O)=O)[C@@H](O)C2)cc1[C@H]1NCCc2ccccc21` (single isomer, unassigned) [I-292b, [(1R,2S,4R)-2-hydroxy-4-{[5-({5-methyl-4-[(1S)-1,2,3,4-tetrahydroisoquinolin-1-yl]-2-thienyl}carbonyl)pyrimidin-4-yl]amino}cyclopentyl]methyl sulfamate or [(1R,2S,4R)-2-hydroxy-4-{[5-({5-methyl-4-[(1R)-1,2,3,4-tetrahydroisoquinolin-1-yl]-2-thienyl}carbonyl)pyrimidin-4-yl]amino}cyclopentyl]methyl sulfamate] the same measures were 87% and 10 to 100 nM.
For `NS(=O)(=O)OC[C@H]1C[C@@H](Nc2ncncc2C(=O)c2cc([C@@H]3OCC(F)(F)c4ccccc43)cs2)C[C@@H]1O` (single isomer, unassigned) [I-293a, [(1R,2S,4R)-4-{[5-({4-[(1R)-4,4-difluoro-3,4-dihydro-1H-isochromen-1-yl]-2-thienyl}carbonyl)pyrimidin-4-yl]amino}-2-hydroxycyclopentyl]methyl sulfamate or [(1R,2S,4R)-4-{[5-({4-[(1S)-4,4-difluoro-3,4-dihydro-1H-isochromen-1-yl]-2-thienyl}carbonyl)pyrimidin-4-yl]amino}-2-hydroxycyclopentyl]methyl sulfamate] the same measures were 57% and 10 to 100 nM.
